In brackets after ≈: the same amount, converted by molar mass. Like-named read-outs stand apart in the source and are kept apart here.
Tests used:
[1] = molecular target: T1, alkaline phosphatase (human placenta, Sigma) (Homo sapiens, UniProt P05187); assay: In vitro conversion in alkaline phosphatase (Table 1, note 1); type: in vitro ADME; details: ~0.2 mM prodrug, ~1.4 unit ALP, pH 8 Tris buffer; full wording: Complete and rapid conversion to parent without any intermediate formation
T1 construct: Qualitative in vitro studies using human placental alkaline phosphatase; purchased Sigma; host or cells: human placenta (as the result head says)

physchem = details: pH 6.5, aqueous buffer
[2] = IV and oral rat PK (MAP) studies A, B, C of phosphate prodrugs and parent studies A1, B1, C1; type: in vivo, Sprague-Dawley rats; details: for In vivo conversion in Rats-iv (note 2) MAP study: dose equiv. to 1 mg/Kg of the parent; for In vivo conversion in Rats-iv (note 2) MAP study / In vivo conversion in Rats-oral (note 2) MAP study: full wording: Rapid generation of parent in plasma; for clearance / Vd / half-life: male, Sprague-Dawley, rat, 1 mg/kg; for clearance / Vd / half-life / AUC 0-24 h (μM * hr) / Cmax (uM) / Cp @ 24 hr p.o. (nM): rats; for clearance / Vd: prodrug IV equivalent to 1 mpk of parent; for clearance: read-out: CL i.v.; for Vd: read-out: Vss i.v.; for half-life: after IV prodrug dosing equivalent to 1 mpk of parent, read-out: T1/2 i.v. (converted); for half-life / AUC 0-24 h (μM * hr) / Cmax (uM) / Cp @ 24 hr p.o. (nM): analyte = label; for In vivo conversion in Rats-oral (note 2) MAP study: dose equiv. to 5 mg/Kg of the parent; for AUC 0-24 h (μM * hr) / Cmax (uM) / Cp @ 24 hr p.o. (nM): after PO prodrug dosing equivalent to 5 mpk of parent
Description: The rats for oral dosing studies were fasted overnight. […] The dosing solutions of all three prodrugs for both IV and oral administration were prepared in 100% normal saline at 1 mg/mL (dosing solution concentrations were parent compound equivalent). Plasma samples were collected in EDTA vacutainers over 24 hrs, and analyzed by LC/MS/MS for both the prodrugs and parent molecules. Pharmacokinetic analysis was performed on Kinetica™.
Plasma and tissue samples were collected and stored at −20° C. until analysis. […] Rats were fasted overnight in PO studies. […] In the PO studies, rats (n=3) received PO doses of 5 and 100 mg/kg.
Male Sprague-Dawley rats (300-350 g, Hilltop Lab Animals, Inc., Scottdale, Pa.) with cannulas implanted in the jugular vein and/or bile duct were used. The rats were fasted overnight in the PO pharmacokinetic studies. Blood samples of 0.3 ml were collected from the jugular vein in EDTA-containing microtainer tubes (Becton Dickinson, Franklin Lakes, N.J.), and centrifuged to separate plasma.

[3] = Oral dosing studies of prodrugs Ie and If in rats (Table 47); type: in vivo, rat; details: for parent molecule in plasma following PO dosing of prodrug: rats, oral dosing of prodrug Ie or If
Description: Prodrug Ie was dosed orally to rats using methodology similar to that described above for the other prodrugs. […] Prodrug If was dosed orally to rats using methodology similar to that described above for the other prodrugs.

[4] = test system: HIV-1 T-tropic strain LAI; assay: Antiviral assay: HIV-1 LAI infection of MT-2 cells, reverse transcriptase readout (EC50, Table 48); type: cell-based; details: Human immunodeficiency virus 1, MT2, read-out: EC50-LAI
From the text: The materials and experimental procedures used to assess the anti-HIV activity of the parent compounds which are generated from the prodrugs in vivo are described below:
• The human T cell line MT-2 and PM1 (AIDS Research and Reference Reagent Program, National Institutes of Health) were maintained and propagated in Medium RPMI-1640 (Invitrogen, Carlsbad, Calif.), containing 10% fetal Bovine serum. (FBS, Sigma, St. Louis, Mo.).
• Laboratory strains of HIV-1—the T-tropic strain LAI was obtained through the AIDS Research and Reference Reagent Program, National Institutes of Health. It was amplified in MT-2 cells and titered using a virus yield assay (2). Detection was achieved through use of a reverse transcriptase assay (3), adapted for use with a Scintillation Proximity detection protocol (1) (Amersham Biosciences, Piscataway, N.J.).
• 1. Compounds stocks were prepared by dissolving in DMSO to 30 mM. For dilution plates, compounds were serially diluted 3-fold into DMSO, using 96-well polypropylene plates, so that the concentrations were 100-fold greater than the final assay concentration. For antiviral and cytotoxicity assays, 2 μl was added per well (1% final DMSO concentration). • 2. Compounds were added from dilution plates to 96 well tissue culture plates, containing 100 μl Medium RPMI-1640, containing 10% fetal bovine serum at a concentration of <20 μM. • 3. For antiviral assays, cells were infected at a multiplicity of infection of 0.005. After 1 h at 37° C., infected cells were diluted to 200,000 cells per ml in Medium RPMI-1640, containing 10% fetal bovine serum. 100 μl of this solution was added per well, giving a final volume of 200 μl. • 4. Plates were incubated at 37° C. in a humidified CO2 incubator and harvested after 5 days. • 5. Viral infections were monitored by measuring reverse transcriptase activity in the supernatants of infected wells as described above. The percent inhibition for each compound was calculated by quantifying the readout level in cells infected in the presence of each compound as a percentage of that observed for cells infected in the absence of compound and subtracting such a determined value from 100. • 6. An EC50 provides a method for comparing the antiviral potency of the compounds of this invention. The effective concentration for fifty percent inhibition (EC50) was calculated with the Microsoft Excel Xlfit curve fitting software. For each compound, curves were generated from percent inhibition calculated at 8 different concentrations by using a four paramenter logistic model (model 205).

[5] = Cytotoxicity assay (XTT dye reduction) in MT-2 cells; type: cell-based; details: human, six days
Description: Cytotoxicity assays were conducted with the same MT-2 cells, using methodology well known in the art. […] 50 μl of XTT reagent (1 mg/ml 2,3-bis[2-methoxy-4-nitro-5-sulfophenyl]-2H-tetrazolium-5-carboxanilide, 10 μg/ml phenazine methosulfate dissolved in phosphate buffered saline) was added to each well and incubated for 3 hours. Color formation by actively respiring cells was quantitated in a plate reader at 450 nm, and used to determine a CC50.

[6] = 2-week oral dose rat toxicology / TK study F; type: in vivo; details: for AUC(0-t): Sprague-Dawley, rat, plasma, oral, dosages 200 mg/kg/day, read-out: AUC0-24 h on Day 14
Description: In the 2-week oral rat study F (n=six/sex/group), Compound IVe was administered at daily doses of 15, 75, or 200 mg/kg. […] On Day 14, AUC0-24 h values were slightly higher in females (≦644 μg*hr/ml) compared to males (526.88 μg*hr/ml) at dosages 200 mg/kg/day. The oral (PO) results from Study F are in Table 5.

T1 sequence (P05187 23-506 limits assumed): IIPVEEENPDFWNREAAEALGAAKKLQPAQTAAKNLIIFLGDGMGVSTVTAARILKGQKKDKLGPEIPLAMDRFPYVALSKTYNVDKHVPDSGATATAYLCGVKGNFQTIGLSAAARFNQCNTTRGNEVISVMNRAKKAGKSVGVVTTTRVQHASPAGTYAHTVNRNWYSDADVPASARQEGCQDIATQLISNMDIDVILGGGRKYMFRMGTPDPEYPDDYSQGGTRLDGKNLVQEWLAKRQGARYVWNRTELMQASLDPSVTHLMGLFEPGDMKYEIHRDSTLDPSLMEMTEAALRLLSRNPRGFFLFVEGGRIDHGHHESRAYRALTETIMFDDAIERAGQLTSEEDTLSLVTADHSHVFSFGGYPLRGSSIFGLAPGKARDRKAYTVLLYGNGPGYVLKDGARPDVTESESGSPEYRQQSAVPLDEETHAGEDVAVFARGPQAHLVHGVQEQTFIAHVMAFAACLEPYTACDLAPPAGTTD

Structure (SMILES): COc1cnc(OC)c2c1c(C(=O)C(=O)N1CCN(C(=O)c3ccccc3)CC1)cn2COP(=O)(O)O [Ia]
- In vitro conversion in Alkaline phosphatase (note 1) [1]: Complete
- solubility (physchem): > 18000 µg/mL
- In vivo conversion in Rats-iv (note 2) MAP study [2]: Rapid
- clearance ([2]; plasma): 16 ± 0.95 mL/min/kg
- Vd ([2]; plasma): 0.095 ± 0.001 L/kg
- half-life ([2]; plasma, iv): 8.4 ± 1.2 min
- In vivo conversion in Rats-oral (note 2) MAP study [2]: Rapid
- AUC 0-24 h (μM * hr) [2]: LLQ
- Cmax (uM) [2]: LLQ
- Cp @ 24 hr p.o. (nM) [2]: LLQ

Structure (SMILES): COc1cnc(-n2cnc(C)n2)c2c1c(C(=O)C(=O)N1CCN(C(=O)c3ccccc3)CC1)cn2COP(=O)(O)O [Ic]
- In vitro conversion in Alkaline phosphatase (note 1) [1]: Complete
- solubility (physchem): 1000 µg/mL (≈ 1710 µM)

Structure (SMILES): COc1cnc(-n2cnc(C)n2)c2c1c(C(=O)C(=O)N1CCC(=C(C#N)c3ccccn3)CC1)cn2COP(=O)(OC(C)(C)C)OC(C)(C)C [IIe]
- F (%) (calc on historical IV data for parent) ([3]; rat, diester prodrug IIe PO 7.0 mg/kg (IVe eq), PK of IVe only): 7.7%
- Cp @ 24 hr p.o. ([3]; rat, diester prodrug IIe PO 7.0 mg/kg (IVe eq), PK of IVe only, 1/3 rats): 8.17 (1/3 rats) nM

Structure (SMILES): O=C(C(=O)N1CCN(C(=O)c2ccccc2)CC1)c1cn(COP(=O)([O-])[O-])c2c(-n3ccnn3)ncc(F)c12.[Na+].[Na+] [Ib]
- In vitro conversion in Alkaline phosphatase (note 1) [1]: Complete
- solubility (physchem): > 8000 µg/mL
- In vivo conversion in Rats-iv (note 2) MAP study [2]: Rapid
- half-life ([2]; in vivo): 108 ± 72 min
- clearance ([2]; in vivo): 46 ± 10 mL/min/kg
- Vd ([2]; in vivo): 0.97 ± 0.47 L/kg
- In vivo conversion in Rats-oral (note 2) MAP study [2]: Rapid
- AUC 0-24 h (μM * hr) [2]: LLQ
- Cmax (uM) [2]: LLQ
- Cp @ 24 hr p.o. (nM) [2]: LLQ

Structure (SMILES): COc1cnc(-n2ccc(C)n2)c2[nH]cc(C(=O)C(=O)N3CCN(C(=O)c4ccccc4)[C@H](C)C3)c12 [IVd]
- EC50 [4]: < 1 µM
- CC50 at 6 days [5]: > 10 µM

Structure (SMILES): O=C(C(=O)N1CCN(c2ncnc3ccccc23)CC1)c1c[nH]c2c(-n3ccnn3)ncc(F)c12 [IVf]
- parent molecule in plasma following PO dosing of prodrug [3]: detected in the plasma

Structure (SMILES): COc1cnc(-n2cnc(C)n2)c2[nH]cc(C(=O)C(=O)N3CCC(=C(C#N)c4ccccn4)CC3)c12 [IVe, 2-(1-(2-(4-methoxy-7-(3-methyl-1H-1,2,4-triazol-1-yl)-1H-pyrrolo[2,3-c]pyridin-3-yl)-2-oxoacetyl)piperidin-4-ylidene)-2-(pyridin-2-yl)acetonitrile]
- AUC(0-t) ([6]; female, females): ≤ 644 µg·h/mL
- AUC(0-t) ([6]; male, males): 527 µg·h/mL
- autoinduction or accumulation ([6]; toxicokinetic evaluations on days 1 and 14): no evidence of autoinduction or accumulation
- parent molecule in plasma following PO dosing of prodrug [3]: detected in the plasma

Source: US20150315218A1, “SALTS OF PRODRUGS OF PIPERAZINE AND SUBSTITUTED PIPERIDINE ANTIVIRAL AGENTS” (Bristol-Myers Squibb Company, priority 2004, published 2015)
